Measurements from patent US20260191849A1, “PHARMACEUTICAL COMPOSITION FOR TREATMENT OF CANCER” (WIGEN BIOMEDICINE TECHNOLOGY (SHANGHAI) CO., LTD., priority 2022, published 2026).
Read-outs that look alike come from different tables or passages of the source.

Columns and labels:
[1] = tested on: HCT116 cells; experiment: In vitro anti-proliferative activity against HCT116 cells (Biological Example 2); format: cell-based; conditions: in words, from Table 4
Description: (§1) HCT116 cells were seeded on a 384-well plate at 3000 cells/well. After overnight adherence culture, DMSO or the compounds serially diluted in a 1:5 ratio from 5 μM were added. The cell viability was assessed 72 h after dosing by measuring the intracellular ATP content. The inhibition percentages of viable cells by the compounds were calculated by comparing with the DMSO group, and the IC50 values were also calculated.

[2] = tested on: HT29 subcutaneous xenograft tumors; experiment: In vivo pharmacodynamic study of combination therapy, HT29 subcutaneous xenograft tumor model of mice (Biological Example 14); set-up: species or system BALB/c nude mice
From the text: BALB/c nude mice were each inoculated subcutaneously with 5×10^6 HT29 cells on the left dorsal side. After the tumors grew to 100-150 mm^3, the mice were randomly divided into the following groups for intragastric administration once daily for 14 consecutive days: group 1: vehicle control group; group 2: AMG650 (50 mpk, PO, QD); group 3: compound 714 (50 mpk, PO, QD); group 4: AMG650 (50 mpk, PO, QD)+Onvasertib (20 mpk, PO, QD); group 5: compound 714 (50 mpk, PO, QD)+Onvasertib (20 mpk, PO, QD); and group 6: Onvasertib (20 mpk, PO, QD). The administration to all the groups was stopped on day 15, and the tumor growth continued to be observed until day 21. The tumor volume was measured twice weekly and at the end of administration. […]

[3] = tested on: HT29 cells; experiment: Combined use of compound 257 with PLK1 inhibitor on HT29 cell viability, 72 h (Biological Example 5); format: cell-based; conditions: for IC50: Homo sapiens, HT-29, 72 h, HT29 cells
Description: as §1, with “HT29 cells” for “HCT116 cells”, “or compound 257” for “or the compounds”, “μM and a PLK1 inhibitor with a specified concentration” for “μM”

[4] = tested on: HCT116 cells; experiment: Combined use of compound 257 with PLK1 inhibitor on HCT116 cell viability, 72 h (Biological Example 6); format: cell-based
Description: as §1, with “or compound 257” for “or the compounds”, “μM and a PLK1 inhibitor with a specified concentration” for “μM”

[5] = tested on: HT29 cells; experiment: Combined use of compound 257 with PLK1 inhibitor (CYC140, TAK-960) on HT29 cell viability, 168 h (Biological Example 9); format: cell-based; conditions: for Maximum inhibition rate / Minimum inhibition rate / IC50 / inhibition: HT29 cells; for IC50 / inhibition: Homo sapiens, HT-29, 168 h
Description: as §1, with “HT29 cells” for “HCT116 cells”, “or compound 257” for “or the compounds”, “from 400 nM and a PLK1 inhibitor with a specified concentration” for “from 5 μM”, “assessed 168” for “assessed 72”

[6] = tested on: HCT116 cells; experiment: Combined use of compound 257 with PLK1 inhibitor (CYC140, TAK-960) on HCT116 cell viability, 168 h (Biological Example 10); format: cell-based
Description: as §1, with “or compound 257” for “or the compounds”, “from 400 nM and a PLK1 inhibitor with a specified concentration” for “from 5 μM”, “assessed 168” for “assessed 72”

[7] = tested on: HT29 cells; experiment: Combined use of compound 257 with Aurora B inhibitor on HT29 cell viability, 72 h (Biological Example 11); format: cell-based; conditions: for IC50: Homo sapiens, HT-29, 72 h, HT29 cells
Description: as §1, with “HT29 cells” for “HCT116 cells”, “or compound 257” for “or the compounds”, “μM and an Aurora B inhibitor with a specified concentration” for “μM”

[8] = PO QD 14 days, AMG650/714 50 mpk, Onvasertib 20 mpk, day 15
[9] = PO QD 14 days, AMG650/714 50 mpk, Onvasertib 20 mpk, day 21, after stop of administration

Compound: Cc1cc(NC(=O)c2ccc(NS(=O)(=O)CCO)cc2N2CCC3(CC2)CC3)nc(N2CCC(F)(F)CC2)n1 [AMG650]
- anti-proliferative activity against HCT116 cells [1]: neither the compounds of the present disclosure nor AMG65 exhibited anti-proliferative activity
- Tumor volume on day 1 of administration ([2]; PO QD 14 days, AMG650/714 50 mpk, Onvasertib 20 mpk, day 1 (baseline)): 132 mm^3
- TGI on day 15 [2, 8]: 115%
- Tumor volume on day 15 of administration [2, 8]: 49 mm^3
- TGI on day 21 [2, 9]: 100%
- Tumor volume on day 21 of administration [2, 9]: 126 mm^3
- tumor inhibitory effect, combined use with the PLK1 inhibitor Onvasertib compared with monotherapy ([2]; combined with Onvasertib, in words): stronger tumor inhibitory effect
- therapeutic efficacy of monotherapy in HT29-bearing mice ([2]; monotherapy, in words): able to inhibit tumor growth

Compound: COc1ccc(NC(=O)c2ccc(NS(=O)(=O)CCO)cc2N2CCC3(CC2)CC3)nc1N1CCC(F)(F)CC1 [Compound 257]
- IC50 ([3]; BI 2536 0 nM): 13.5 nM
- IC50 ([3]; BI 2536 1.25 nM): 9.9 nM
- IC50 ([3]; BI 2536 2.5 nM): 6.2 nM
- IC50 ([3]; BI 2536 5 nM): 2 nM
- IC50 ([3]; BI 2536 10 nM): 0.6 nM
- IC50 ([3]; GSK461364 0 nM): 13.5 nM
- IC50 ([3]; GSK461364 1.25 nM): 14.3 nM
- IC50 ([3]; GSK461364 2.5 nM): 8.8 nM
- IC50 ([3]; GSK461364 5 nM): 3.3 nM
- IC50 ([3]; GSK461364 10 nM): 0.5 nM
- IC50 ([3]; MLN0905 0 nM): 13.1 nM
- IC50 ([3]; MLN0905 12.5 nM): 4.7 nM
- IC50 ([3]; MLN0905 25 nM): 0.5 nM
- IC50 ([3]; Onvansertib 0 nM): 12.7 nM
- IC50 ([3]; Onvansertib 12.5 nM): 5.2 nM
- IC50 ([3]; Onvansertib 25 nM): 0.8 nM
- IC50 ([3]; Rigosertib 0 nM): 14.5 nM
- IC50 ([3]; Rigosertib 12.5 nM): 12.2 nM
- IC50 ([3]; Rigosertib 25 nM): 15.2 nM
- IC50 ([3]; Rigosertib 50 nM): 9.1 nM
- IC50 ([3]; Rigosertib 100 nM): 0.4 nM
- IC50 ([3]; Ro3280 0 nM): 13.6 nM
- IC50 ([3]; Ro3280 12.5 nM): 2.9 nM
- IC50 ([3]; Ro3280 25 nM): 0.4 nM
- IC50 ([3]; Volasertib 0 nM): 13.1 nM
- IC50 ([3]; Volasertib 12.5 nM): 1.1 nM
- IC50 ([3]; Volasertib 25 nM): 0.7 nM
- inhibitory effect on HT-29 cells, combined use with the PLK1 inhibitor compared with monotherapy ([3]; in words): stronger inhibitory effect
- IC50 ([4]; HCT116 cells, Volasertib 10 nM): > 10 µM
- IC50 ([4]; HCT116 cells, Volasertib 50 nM): > 10 µM
- IC50 ([4]; Homo sapiens, HCT-116, HCT116 cells, Volasertib 0 nM): > 10 µM
- anti-proliferative activity against HCT116 cells, monotherapy ([4]; in words): did not exhibit anti-proliferative activity
- synergistic effect on HCT116 cell viability, combined use with the PLK1 inhibitor ([4]; in words): no significant synergistic effect
- inhibitory effect on HT-29 cells, combined use with the PLK1 inhibitor compared with monotherapy ([5]; CYC140 or TAK-960, in words): stronger inhibitory effect
- Maximum inhibition rate ([5]; CYC140 (Plogosertib) 0 nM): 44.2%
- Minimum inhibition rate ([5]; CYC140 (Plogosertib) 0 nM): -7.1%
- Maximum inhibition rate ([5]; TAK-960 0 nM): 57.1%
- Minimum inhibition rate ([5]; TAK-960 0 nM): 1.5%
- IC50 ([5]; CYC140 (Plogosertib) 0 nM): 15.7 nM
- IC50 ([5]; CYC140 (Plogosertib) 1.6 nM): 10.4 nM
- inhibition ([5]; CYC140 (Plogosertib) 1.6 nM, read-out: Maximum inhibition rate): 80.3%
- inhibition ([5]; CYC140 (Plogosertib) 1.6 nM, read-out: Minimum inhibition rate): -0.7%
- IC50 ([5]; CYC140 (Plogosertib) 8 nM): 3.1 nM
- inhibition ([5]; CYC140 (Plogosertib) 8 nM, read-out: Maximum inhibition rate): 90.9%
- inhibition ([5]; CYC140 (Plogosertib) 8 nM, read-out: Minimum inhibition rate): 0.4%
- IC50 ([5]; TAK-960 0 nM): 14 nM
- IC50 ([5]; TAK-960 8 nM): 13.1 nM
- inhibition ([5]; TAK-960 8 nM, read-out: Maximum inhibition rate): 86.1%
- inhibition ([5]; TAK-960 8 nM, read-out: Minimum inhibition rate): 7.5%
- IC50 ([5]; TAK-960 40 nM): 2.4 nM
- inhibition ([5]; TAK-960 40 nM, read-out: Maximum inhibition rate): 93.6%
- inhibition ([5]; TAK-960 40 nM, read-out: Minimum inhibition rate): -4%
- synergistic effect on HCT116 cell viability, combined use with the PLK1 inhibitor ([6]; CYC140 or TAK-960, in words): no significant synergistic effect
- IC50 ([6]; HCT116 cells, CYC140 (Plogosertib) 1.6 nM): > 400 nM
- IC50 ([6]; HCT116 cells, CYC140 (Plogosertib) 8 nM): > 400 nM
- IC50 ([6]; HCT116 cells, TAK-960 0 nM): > 400 nM
- IC50 ([6]; HCT116 cells, TAK-960 8 nM): > 400 nM
- IC50 ([6]; HCT116 cells, TAK-960 40 nM): > 400 nM
- IC50 ([6]; Homo sapiens, HCT-116, HCT116 cells, CYC140 (Plogosertib) 0 nM): > 400 nM
- anti-proliferative activity against HCT116 cells, monotherapy ([6]; in words): did not exhibit anti-proliferative activity
- IC50 ([7]; Barasertib 0 nM): 13.9 nM
- IC50 ([7]; Barasertib 20 nM): 7.3 nM
- IC50 ([7]; Barasertib 100 nM): 4.2 nM
- IC50 ([7]; Barasertib 500 nM): 3.3 nM
- IC50 ([7]; SP-96 0 nM): 14.5 nM
- IC50 ([7]; SP-96 20 nM): 16.1 nM
- IC50 ([7]; SP-96 100 nM): 14.5 nM
- IC50 ([7]; SP-96 500 nM): 5.8 nM
- inhibitory effect on HT-29 cells, combined use with the Aurora B inhibitor compared with monotherapy ([7]; in words): stronger inhibitory effect
